Laboratory results as given in ChEMBL document CHEMBL3217463, “Design, synthesis and biological evaluation of -lactam hydroxamate based TACE inhibitors” (Medchemcomm, 2011).

Test system: Blood
Assay: Antiinflammatory activity in human whole blood assessed as inhibition of LPS-induced TNFalpha secretion by ELISA
Format: functional, tissue-based

Structure (SMILES)	IC50
CC(C)C[C@H](C(=O)NO)N1CC[C@@](N)(c2ccc(OCc3cc(-c4ccccc4)nc4ccccc34)cc2)C1=O	3060 nM
COc1cc(COc2ccc([C@]3(N)CCN([C@H](CC(C)C)C(=O)NO)C3=O)cc2)c2ccccc2n1	401 nM
CCc1cc(COc2ccc([C@]3(N)CCN([C@H](CC(C)C)C(=O)NO)C3=O)cc2)c2ccccc2n1	111 nM
COCc1cc(COc2ccc([C@]3(NC(=O)OC(C)(C)C)CCN([C@H](CC(C)C)C(=O)NO)C3=O)cc2)c2ccccc2n1	3050 nM
COCc1cc(COc2ccc([C@]3(N)CCN([C@H](C)C(=O)NO)C3=O)cc2)c2ccccc2n1	98 nM
CC(C)C[C@H](C(=O)NO)N1CC[C@@](N)(c2ccc(OCc3cc(C4CC4)nc4ccccc34)cc2)C1=O	170 nM
